According to PubChem BioAssay (NCI):
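96-well plates; 48 h exposure; 5 concentrations. Endpoints by linear interpolation between flanking doses. Not reached: highest tested concentration assigned. TGI is the concentration that stops growth completely.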

Experiments:
Assay in all cases: NCI tumour cell line growth inhibition, 48 h
[1] = tested on: DMS 273 small cell lung
[2] = tested on: SNB-78 CNS
[3] = tested on: K-562 leukemia
[4] = tested on: XF 498 CNS
[5] = tested on: HT29 colon
[6] = tested on: LXFL 529 NSCLC
[7] = tested on: HCT-116 colon
[8] = tested on: M19-MEL melanoma
[9] = tested on: KM20L2 colon
[10] = tested on: 786-0 renal
[11] = tested on: RXF-631 renal
[12] = tested on: HOP-18 NSCLC
[13] = tested on: DLD-1 colon
[14] = tested on: DMS 114 small cell lung
[15] = tested on: LOX IMVI melanoma

| Structure (SMILES) | TGI [1] | TGI [2] | TGI [3] | TGI [4] | TGI [5] | TGI [6] | TGI [7] | TGI [8] | TGI [9] | TGI [10] | TGI [11] | TGI [12] | TGI [13] | TGI [14] | TGI [15] |
| --- | --- | --- | --- | --- | --- | --- | --- | --- | --- | --- | --- | --- | --- | --- | --- |
| CCOC(=O)c1c(CN2CCNCC2)nc2ccc(Cl)cc2c1-c1ccccc1 | 5.56 µM | 24.7 µM | 7.03 µM | 9.43 µM | 3.68 µM | 3.2 µM | 10.2 µM | 3.61 µM | 6.87 µM | 3.15 µM | 6.68 µM | 15.5 µM | 10.1 µM | 4.05 µM | 3.26 µM |
| Cc1ccc(NC(=O)C2C3C=CC(O3)C2C(=O)O)cc1 (stereo not given) | > 100 µM | > 100 µM | > 100 µM | > 100 µM | 39.8 µM | > 100 µM | > 100 µM | > 100 µM | > 100 µM | > 100 µM | – | > 100 µM | > 100 µM | > 100 µM | 47.4 µM |
| CCc1cccc(C(C)C)c1NC(=O)/C(=N\NC(N)=O)C(C(=O)OC)c1cnc2ccccc2n1 (stereo not given) | > 100 µM | > 100 µM | > 100 µM | > 100 µM | > 100 µM | > 100 µM | 86.6 µM | 32.4 µM | > 100 µM | > 100 µM | > 100 µM | 98.2 µM | > 100 µM | 54.2 µM | > 100 µM |
| CC(=O)NC(CCCCNCc1ccccc1)C(=O)NCc1ccccc1 (stereo not given) | > 100 µM | > 100 µM | > 100 µM | > 100 µM | > 100 µM | > 100 µM | > 100 µM | > 100 µM | > 100 µM | > 100 µM | – | – | > 100 µM | > 100 µM | > 100 µM |
| CC1(O)CC2C(CC1SC1CC3C(CC1(C)O)C3(C)C)C2(C)C (stereo not given) | > 100 µM | > 100 µM | > 100 µM | > 100 µM | > 100 µM | > 100 µM | > 100 µM | 63.4 µM | – | > 100 µM | – | > 100 µM | > 100 µM | > 100 µM | – |
| CCOc1ccc(N(CC(=O)N2CC(=O)Nc3cc(C)c(C)cc32)C(C)=O)cc1 | > 100 µM | > 100 µM | > 100 µM | > 100 µM | > 100 µM | > 100 µM | > 100 µM | > 100 µM | > 100 µM | > 100 µM | – | > 100 µM | > 100 µM | – | > 100 µM |
| COc1cccc(/C=C2\CCC(CN(C)C)C2=O)c1 (stereo not given) | 26.2 µM | 66.5 µM | 4.89 µM | 33.6 µM | 40.7 µM | 6.45 µM | 16 µM | 21.5 µM | 31.7 µM | 8.57 µM | 20.2 µM | 33.2 µM | 7.81 µM | 42.4 µM | 3.51 µM |
| COc1cc([C@@H]2c3cc4c(cc3[C@@H](NCc3ccccc3F)C3COC(=O)[C@@H]32)OCO4)cc(OC)c1O (stereo not given in full) | 21.2 µM | > 100 µM | 35.4 µM | – | 25.5 µM | 88.2 µM | 21.9 µM | 23.4 µM | 8.65 µM | 13.8 µM | 19.8 µM | > 100 µM | > 100 µM | 28.3 µM | 16.7 µM |
| O=C1/C(=C/c2ccccc2Cl)COc2ccc(Br)cc21 | > 100 µM | > 100 µM | 31.7 µM | > 100 µM | > 100 µM | > 100 µM | > 100 µM | > 100 µM | > 100 µM | > 100 µM | – | > 100 µM | > 100 µM | > 100 µM | > 100 µM |
